Residues, ends and D or L forms follow the SMILES beside them.
What was measured:
[1] = Preparation of film from sheet-shaped gel; assay type: physicochemical; conditions: 0.5% (w/v); 30%, 20% and 10% glycerin aqueous solutions; dissolved at 80° C.
Procedure: Into a screw tube (Maruemu No. 3, manufactured by Maruemu Corp.), 3 mg of N-palmitoyl-Gly-His.TFA salt prepared in Example 1 was placed. Into the screw tube, 0.6 ml of Japanese Pharmacopoeia purified water (Kyoei Pharmaceutical Industries, Ltd.) was added so as to have a concentration of 0.5% (w/v). The whole was heated at 105° C. for 5 minutes, and then allowed to stand at room temperature to prepare a gel of 0.5% N-palmitoyl-Gly-His.TFA salt.
Into the gel, 2 ml of Japanese Pharmacopoeia purified water (Kyoei Pharmaceutical Industries, Ltd.) was further added and sheet formation was observed from a wide view for 72 hours.
Using 10 mg of free N-palmitoyl-Gly-His, each 2.0 mL of 30%, 20%, and 10% glycerin aqueous solutions was added so as to become a 0.5% (w/v) solution, and the mixture solution was heated and dissolved at 80° C. The solution was placed in a glass petri dish having an inner diameter of 2.2 cm and allowed to cool at room temperature. […] Then, the obtained gel was transferred onto a glass substrate.

[2] = Gelation of free N-palmitoyl-Gly-His in 65% (w/w) propylene glycol aqueous solution containing lactic acid and potassium lactate; assay type: physicochemical; conditions: 65% (w/w) propylene glycol aqueous solution with 5% (w/w) potassium lactate:lactic acid (95:5)
Procedure: (§1) Free N-palmitoyl-Gly-His (25 mg) obtained in Example 4 was placed in a screw tube (Maruemu Corp., No. 7). Sixty-five percent (w/w) propylene glycol aqueous solution was added so as to have a concentration of 0.25% (w/v), and a mixture of potassium lactate:lactic acid (95:5) was further added so as to have a concentration of 5% (w/w) with respect to the whole solution. The mixture was heated with a dry bath incubator (manufactured by First Gene) at 75° C. for 10 minutes. The obtained solution was transferred into a spray vial (Maruemu Corp., No. 3L), and allowed to cool to room temperature.
as §1, with “N-palmitoyl-Gly-His (80” for “N-palmitoyl-Gly-His (25”, “placed into” for “placed in”, “of 0.2%” for “of 0.25%”, “at 93°” for “at 75°”, “for 5” for “for 10”

SMILES: CCCCCCCCCCCCCCCC(=O)NCC(=O)N[C@@H](Cc1c[nH]cn1)C(=O)O [Example 4, N-Palmitoyl-Gly-His] (HELM PEPTIDE1{[CCCCCCCCCCCCCCCC(=O)[*:2]].G.H}$$$$V2.0)
- Gelation [1]: gelation was observed in each case
- Gelation ([2]; 0.2% (w/v), heated 93° C., 5 minutes): gelation
- Gelation ([2]; 0.25% (w/v), heated 75° C., 10 minutes): gelation

— patent publication US9289496B2, “Lipid dipeptide and gel” (Nissan Chemical Industries, Ltd., priority 2008, dated 2016)
